BigSolDB 2.1

COc1ccc(Cl)cc1C(=O)NCCc1ccc(S(=O)(=O)NC(=O)NC2CCCCC2)cc1
solubility (mole fraction)
Settings	283.15 K	288.15 K	293.15 K	298.15 K	303.15 K	308.15 K	313.15 K	318.15 K	323.15 K
in MIBK	0.000198	0.000227	0.000276	0.000336	0.000426	0.000529	0.000655	0.000789	0.000908
in acetone	0.000471	0.000568	0.00069	0.000894	0.00109	0.00134	0.00171	0.00214	0.00261
in acetonitrile	5.25e-05	7.15e-05	9.85e-05	0.000131	0.000163	0.000225	0.000316	0.000418	0.000558
in ethanol	0.000108	0.00015	0.000188	0.000249	0.000316	0.000412	0.000591	0.000865	0.00116
in ethyl acetate	9.01e-05	0.000121	0.00015	0.000181	0.000226	0.00029	0.000375	0.000486	0.000627
in isopropanol	7.55e-05	8.89e-05	0.000126	0.000162	0.000207	0.000271	0.000401	0.000619	0.000934
in methanol	0.000124	0.000165	0.00021	0.000284	0.000355	0.000488	0.000695	0.00105	0.00143
in methyl acetate	0.000127	0.000164	0.000202	0.000246	0.000296	0.000372	0.000492	0.000629	0.000769
in n-butanol	0.000186	0.000223	0.000242	0.000284	0.000334	0.000445	0.000646	0.000922	0.00135
in n-propanol	0.0001	0.000125	0.000163	0.000225	0.000286	0.000381	0.000538	0.000729	0.000983
in sec-butanol	6.35e-05	7.97e-05	0.000104	0.000141	0.000184	0.000248	0.000365	0.000568	0.000887
